US5041567A, “Antibacterial monic acid derivatives” (Beecham Group plc, priority 1982, dated 1991)
Converted amounts (≈) assume the structure as drawn. Like-named read-outs stand apart in the source and are kept apart here.

Experiments:
[1] = tested on: M. suipneumoniae TAM 6N; test: MIC against mycoplasma in vitro; type: cell-based; settings: Mesomycoplasma hyopneumoniae, TAM6N, 144 h
[2] = tested on: E. coli NCTC 10418; test: MIC against human bacteria in vitro; type: cell-based; settings: Escherichia coli, NCTC10418; E. coli NCTC 10418; agar with 5% chocolated horse blood, 18 hours, 37° C.; read-out: MIC
[3] = tested on: E. coli NCTC 10418; test: MIC against veterinary bacteria in vitro; settings: Escherichia coli, NCTC10418, 18 h
Experimental: (§1) The activity of the compounds of the Examples against various veterinarily important bacteria, was assayed in vitro using two-fold serial dilutions in Diagnostic Sensitivity Test Agar inoculated with 10^4 organisms.

[4] = tested on: Strep. suis (group D) SPS11; test: MIC against veterinary bacteria in vitro; settings: Streptococcus suis, 18 h
Experimental: as §1

[5] = tested on: S. dublin S7; test: MIC against veterinary bacteria in vitro; settings: Salmonella enterica, S7, 18 h
Experimental: as §1

[6] = tested on: M. hyorhinis ATCC 25021; test: MIC against mycoplasma in vitro; type: cell-based; settings: Mesomycoplasma hyorhinis, ATCC25021, 144 h
[7] = tested on: M. suipneumoniae Str. 11; test: MIC against mycoplasma in vitro; type: cell-based; settings: Mesomycoplasma hyopneumoniae, STR.11, 144 h
[8] = tested on: Staph. aureus W2827; test: MIC against human bacteria in vitro; type: cell-based; settings: Staphylococcus aureus; Staph. aureus W2827; 5% chocolated horse blood agar, 18 hours; read-out: MIC
[9] = tested on: M. suipneumoniae NB12; test: MIC against mycoplasma in vitro; type: cell-based; settings: Mesomycoplasma hyopneumoniae, NB12, 144 h
[10] = tested on: M. bovigenitalium ATCC 14173; test: MIC against mycoplasma in vitro; type: cell-based; settings: 144 h
[11] = tested on: Ps. aeruginosa NCTC 10662; test: MIC against human bacteria in vitro; type: cell-based; settings: Pseudomonas aeruginosa, NCTC10662; Ps. aeruginosa NCTC 10662; 5% chocolated horse blood agar, 18 hours; read-out: MIC
[12] = tested on: Past. haemolytica PA5; test: MIC against veterinary bacteria in vitro; settings: Mannheimia haemolytica, PA5, 18 h
Experimental: as §1

[13] = tested on: Past. multocida PA1; test: MIC against veterinary bacteria in vitro; settings: Pasteurella multocida, PA1, 18 h
Experimental: as §1

[14] = tested on: E. coli E1; test: MIC against veterinary bacteria in vitro; settings: Escherichia coli, E1, 18 h
Experimental: as §1

[15] = tested on: M. suipneumoniae ATCC 25095; test: MIC against mycoplasma in vitro; type: cell-based; settings: Mesomycoplasma hyopneumoniae, ATCC25095, 144 h
[16] = tested on: Neisseria catarrhalis 1502; test: MIC against human bacteria in vitro; type: cell-based; settings: Neisseria catarrhalis 1502; 5% chocolated horse blood agar, 18 hours; read-out: MIC
[17] = tested on: Staph. aureus Oxford; test: MIC against human bacteria in vitro; type: cell-based; settings: Staphylococcus aureus; Staph. aureus Oxford; 5% chocolated horse blood agar, 18 hours; read-out: MIC
[18] = tested on: P. mirabilis 889; test: MIC against human bacteria in vitro; type: cell-based; settings: Proteus mirabilis; P. mirabilis 889; 5% chocolated horse blood agar, 18 hours; read-out: MIC
[19] = tested on: Strep. agalactiae 2788-B; test: MIC against human bacteria in vitro; type: cell-based; settings: Streptococcus agalactiae; Strep. agalactiae 2788-B; 5% chocolated horse blood agar, 18 hours; read-out: MIC
[20] = tested on: Past. multocida PA2; test: MIC against veterinary bacteria in vitro; settings: Pasteurella multocida, PA2, 18 h
Experimental: as §1

[21] = tested on: Strep. pneumoniae CN33; test: MIC against human bacteria in vitro; type: cell-based; settings: Streptococcus pneumoniae; Strep. pneumoniae CN33; 5% chocolated horse blood agar, 18 hours; read-out: MIC
[22] = tested on: M. suipneumoniae UCD 1; test: MIC against mycoplasma in vitro; type: cell-based; settings: Mesomycoplasma hyopneumoniae, UCD1, 144 h
[23] = tested on: Strep. pyogenes R80/421-A; test: MIC against human bacteria in vitro; type: cell-based; settings: Streptococcus pyogenes; Strep. pyogenes R80/421-A; 5% chocolated horse blood agar, 18 hours; read-out: MIC
[24] = tested on: M. suipneumoniae JF 435; test: MIC against mycoplasma in vitro; type: cell-based; settings: Mesomycoplasma hyopneumoniae, JF435, 144 h
[25] = tested on: Strep. agalactiae SPA1; test: MIC against veterinary bacteria in vitro; settings: Streptococcus agalactiae, SPA1, 18 h
Experimental: as §1

[26] = tested on: Staph. aureus 152 (pen. sens); test: MIC against veterinary bacteria in vitro; settings: Staphylococcus aureus, 18 h
Experimental: as §1

[27] = tested on: Staph. aureus Russell; test: MIC against human bacteria in vitro; type: cell-based; settings: Staphylococcus aureus; Staph. aureus Russell; 5% chocolated horse blood agar, 18 hours; read-out: MIC
[28] = tested on: Haemophilus influenzae Wy21; test: MIC against human bacteria in vitro; type: cell-based; settings: Haemophilus influenzae Wy21; 5% chocolated horse blood agar, 18 hours; read-out: MIC
[29] = tested on: Corynebacterium xerosis 9755; test: MIC against human bacteria in vitro; type: cell-based; settings: Corynebacterium xerosis 9755; 5% chocolated horse blood agar, 18 hours; read-out: MIC
[30] = tested on: M. gallisepticum S6; test: MIC against mycoplasma in vitro; type: cell-based; settings: Mycoplasmoides gallisepticum, 144 h; M. gallisepticum S6; 6 days, 37° C.; read-out: MIC
[31] = tested on: M. suipneumoniae NCTC 10110; test: MIC against mycoplasma in vitro; type: cell-based; settings: Mesomycoplasma hyopneumoniae, NCTC10110, 144 h
[32] = tested on: M. suipneumoniae MS 16; test: MIC against mycoplasma in vitro; type: cell-based; settings: Mesomycoplasma hyopneumoniae, MS16, 144 h
[33] = tested on: M. dispar NCTC 10125; test: MIC against mycoplasma in vitro; type: cell-based; settings: 144 h

For C/C(=C\c1ncc(-c2ccc(C(=O)O)cc2)o1)C[C@@H]1OC[C@H](C[C@@H]2O[C@H]2[C@@H](C)[C@H](C)O)[C@@H](O)[C@H]1O [Example 17, Sodium 4-[2-(1-normon-2-yl)-5-oxazolyl] benzoate A], the MIC ([1]; M. suipneumoniae TAM 6N, 6 days, 37° C., read-out: MIC) was 10 µg/mL, the MIC [2] was greater than 64 µg/mL and the MIC [3] was greater than 80 µg/mL. It also gave an MIC [4] of 40 µg/mL, an MIC [5] greater than 80 µg/mL and an MIC ([6]; M. hyorhinis ATCC 25021, 6 days, 37° C., read-out: MIC) of 5 µg/mL. It also gave an MIC [7] of 2.5 µg/mL, an MIC [8] greater than 64 µg/mL and an MIC [9] of 2.5 µg/mL. It also gave an MIC ([10]; M. bovigenitalium ATCC 14173, 6 days, 37° C., read-out: MIC) of 5 µg/mL, an MIC [11] greater than 64 µg/mL and an MIC [12] greater than 80 µg/mL. The MIC [13] was 10 µg/mL, the MIC [14] was greater than 80 µg/mL and the MIC ([15]; M. suipneumoniae ATCC 25095, 6 days, 37° C., read-out: MIC) was 5 µg/mL. The MIC [16] was 8 µg/mL, the MIC [17] was 32 µg/mL and the MIC [18] was greater than 64 µg/mL. For the same compound, the MIC [19] was 32 µg/mL, the MIC [20] was 1.25 µg/mL and the MIC [21] was 64 µg/mL. The MIC ([22]; M. suipneumoniae UCD 1, 6 days, 37° C., read-out: MIC) was 5 µg/mL, the MIC [23] was 4 µg/mL and the MIC ([24]; M. suipneumoniae JF 435, 6 days, 37° C., read-out: MIC) was 5 µg/mL. It also gave an MIC [25] of 40 µg/mL, an MIC [26] of 10 µg/mL and an MIC [27] greater than 64 µg/mL. For the same compound, the MIC [28] was 2 µg/mL, the MIC [29] was greater than 64 µg/mL and the MIC [30] was greater than 10 µg/mL. For the same compound, the MIC ([31]; M. suipneumoniae NCTC 10110, 6 days, 37° C., read-out: MIC) was greater than 10 µg/mL, the MIC [32] was 2.5 µg/mL and the MIC [33] was 2.5 µg/mL.

With C/C(=C\c1cc(-c2ccccc2)on1)C[C@@H]1OC[C@H](C[C@@H]2O[C@H]2[C@@H](C)[C@H](C)O)[C@@H](O)[C@H]1O [Example 34, 3-(1-Normon-2-yl)-5-phenylisoxazole A] the MIC [1] was 2.5 µg/mL (≈ 5.64 µM), the MIC [2] was greater than 128 µg/mL and the MIC [3] was greater than 80 µg/mL. It also gave an MIC [4] of 80 µg/mL (≈ 180 µM), an MIC [5] greater than 80 µg/mL and an MIC [6] of 1 µg/mL (≈ 2.25 µM). It also gave an MIC [7] of 1 µg/mL (≈ 2.25 µM), an MIC [8] of 16 µg/mL (≈ 36.1 µM) and an MIC [9] of 2.5 µg/mL (≈ 5.64 µM). The MIC [10] was 1 µg/mL (≈ 2.25 µM), the MIC [11] was greater than 128 µg/mL and the MIC [12] was greater than 80 µg/mL. For the same compound, the MIC [14] was greater than 80 µg/mL, the MIC [15] was 1 µg/mL (≈ 2.25 µM) and the MIC [16] was 4 µg/mL (≈ 9.02 µM). The MIC [17] was 8 µg/mL (≈ 18 µM), the MIC [18] was greater than 128 µg/mL and the MIC [19] was 64 µg/mL (≈ 144 µM). The MIC [21] was 64 µg/mL (≈ 144 µM), the MIC [22] was 2.5 µg/mL (≈ 5.64 µM) and the MIC [23] was 8 µg/mL (≈ 18 µM). It also gave an MIC [24] of 2.5 µg/mL (≈ 5.64 µM), an MIC [25] of 40 µg/mL (≈ 90.2 µM) and an MIC [26] of 2.5 µg/mL (≈ 5.64 µM). It also gave an MIC [27] of 16 µg/mL (≈ 36.1 µM), an MIC [28] of 2 µg/mL (≈ 4.51 µM) and an MIC [29] greater than 128 µg/mL. The MIC [30] was greater than 10 µg/mL, the MIC [31] was 2.5 µg/mL (≈ 5.64 µM) and the MIC [32] was 1 µg/mL (≈ 2.25 µM). The MIC ([33]; M. dispar NCTC 10125, 6 days, 37° C., read-out: MIC) was 0.5 µg/mL (≈ 1.13 µM).
